Laboratory results taken from patent publication US20260022142A1, “MACROCYCLIC IMMUNOMODULATORS” (Bristol-Myers Squibb Company, priority 2022, published 2026).
pIC50: −log10 of the molar value. Numbered stars: 1 amine (or outer) side, 2 acyl side, 3 side chain; on linkers, the order of the positions; unused ones are H or OH. Bridge positions count the residues as written; N and C are the ends. Square brackets hold non-standard residues; d marks the D form. Peptide text beside a SMILES is read from it. * marks the point of attachment. Phe(4-CONH2) = NC(=O)c1ccc(C[C@H](N)C(=O)O)cc1; Phe(4-COOH) = N[C@@H](Cc1ccc(C(=O)O)cc1)C(=O)O; Bip = N[C@@H](Cc1ccc(-c2ccccc2)cc1)C(=O)O; NH(CH2)16COOH = O=C(O)CCCCCCCCCCCCCCCCN*; NH(CH2)14COOH = O=C(O)CCCCCCCCCCCCCCN*; Phe(3-Me) = Cc1cccc(C[C@H](N)C(=O)O)c1; γGlu = O=C(O)[C@H](CCC(=O)[*:2])N[*:1]; Val(3-OH) = CC(C)(O)[C@H](N)C(=O)O; 4Pal = N[C@@H](Cc1ccncc1)C(=O)O; Cha = N[C@@H](CC1CCCCC1)C(=O)O; Carboxymethyl = O=C(O)C*; Orn = NCCC[C@H](N)C(=O)O; Aun = NCCCCCCCCCCC(=O)O; Dab = NCC[C@H](N)C(=O)O; Dap = NC[C@H](N)C(=O)O; AEEA = NCCOCCOCC(=O)O

target: T1, PD-1/PD-L1 interaction (PE-labeled human PD-L1-Ig binding to Jurkat cell line over-expressing human PD-1) (Homo sapiens, UniProt Q15116); test: Jurkat-PD-1 Cell Binding High-Content Screening Assay (CBA); format: cell-based; conditions: Jurkat cell line over-expressing human PD-1; PE-labeled PD-L1-Ig 20 nM final; read-out: Jurkat hPD1-PDL1 IC50
T1 construct: expressed in transfected cells; host or cells: Jurkat
T1 sequence (Q15116 25-288): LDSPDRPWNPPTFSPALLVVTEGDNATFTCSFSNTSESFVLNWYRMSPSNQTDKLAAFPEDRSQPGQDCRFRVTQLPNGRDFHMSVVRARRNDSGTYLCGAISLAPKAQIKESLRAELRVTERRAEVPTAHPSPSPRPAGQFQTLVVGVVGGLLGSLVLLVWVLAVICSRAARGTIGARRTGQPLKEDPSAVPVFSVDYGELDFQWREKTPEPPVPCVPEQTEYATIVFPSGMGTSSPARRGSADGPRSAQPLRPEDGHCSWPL
Outline: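 Read-out is high-content imaging of cell-bound phycoerythrin-tagged PD-L1-Ig on fixed, Hoechst-counterstained Jurkat cells that over-express human PD-1. Compound exposure lasts 2 h at 37° C before the labeled ligand (20 nM final) is added for a further hour.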

Row | pIC50 | Compound
1 | 7.38 | Cc1cccc(C[C@@H]2NC(=O)[C@H](CC(=O)O)NC(=O)[C@H](Cc3ccc(OCC(=O)O)cc3)NC(=O)[C@H](CCN)NC(=O)CSC[C@@H](C(=O)N[C@@H](CCN)C(=O)NCCOCCOCC(=O)NCCOCCOCC(=O)N[C@@H](CC(=O)NCCCCCCCCCCCCCCC(=O)O)C(=O)O)NC(=O)[C@H](Cc3c[nH]cn3)NC(=O)[C@H](C(C)(C)O)NC(=O)[C@H](CC3CCCCC3)NC(=O)[C@H](CCN)NC(=O)[C@@H](CC(C)C)NC(=O)[C@H](CCCN)NC(=O)[C@H](Cc3ccc(C(=O)O)cc3)NC(=O)[C@H](Cc3ccc(-c4ccccc4)cc3)NC(=O)[C@H](Cc3ccc(C(=O)O)cc3)NC2=O)c1 [Compound 1252] ({CH2CO}-[Dab]Y(Carboxymethyl)D[Phe(3-Me)][Phe(4-COOH)][Bip][Phe(4-COOH)][Orn][dL][Dab][Cha][Val(3-OH)]HC[Dab][AEEA][AEEA]D(NH(CH2)14COOH)-OH; thioether N-14)
2 | 7.43 | Cc1cccc(C[C@@H]2NC(=O)[C@H](CC(=O)O)NC(=O)[C@H](Cc3ccc(OCC(=O)O)cc3)NC(=O)[C@H](CN)NC(=O)CSC[C@@H](C(=O)N[C@@H](CCN)C(=O)NCCOCCOCC(=O)NCCCCCCCCCCC(=O)O)NC(=O)[C@H](CN)NC(=O)[C@H](Cc3ccc(O)cc3)NC(=O)[C@H](CC3CCCCC3)NC(=O)[C@H](CCN)NC(=O)[C@@H](CC(C)C)NC(=O)[C@H](CCCN)NC(=O)[C@H](Cc3ccc(O)cc3)NC(=O)[C@H](Cc3ccc(-c4ccccc4)cc3)NC(=O)[C@H](Cc3ccc(O)cc3)NC2=O)c1 [Compound 2504] ({CH2CO}-[Dap]Y(Carboxymethyl)D[Phe(3-Me)]Y[Bip]Y[Orn][dL][Dab][Cha]Y[Dap]C[Dab][AEEA][Aun]-OH; thioether N-14)
3 | 8.28 | Cc1cccc(C[C@@H]2NC(=O)[C@H](CC(=O)O)NC(=O)[C@H](Cc3ccc(OCC(=O)O)cc3)NC(=O)[C@H](CN)NC(=O)CSC[C@@H](C(=O)NCCOCCOCC(=O)NCCCCCCCCCCC(=O)O)NC(=O)[C@H](CCCN)NC(=O)[C@H](C(C)C)NC(=O)[C@H](CC3CCCCC3)NC(=O)[C@H](CCN)NC(=O)[C@@H](CC(C)C)NC(=O)[C@H](CCCN)NC(=O)[C@H](C(C)C)NC(=O)[C@H](Cc3ccc(-c4ccccc4)cc3)NC(=O)[C@H](C(C)C)NC2=O)c1 [Compound 2567] ({CH2CO}-[Dap]Y(Carboxymethyl)D[Phe(3-Me)]V[Bip]V[Orn][dL][Dab][Cha]V[Orn]C[AEEA][Aun]-OH; thioether N-14)
4 | 7.34 | Cc1cccc(C[C@@H]2NC(=O)[C@H](CC(=O)O)NC(=O)[C@H](Cc3ccc(OCC(=O)O)cc3)NC(=O)[C@H](C)NC(=O)CSC[C@@H](C(=O)N[C@@H](CCN)C(=O)NCCOCCOCC(=O)NCCOCCOCC(=O)N[C@@H](CCC(=O)N[C@@H](CCC(=O)NCCCCCCCCCCCCCCCCC(=O)O)C(=O)O)C(=O)O)NC(=O)[C@H](Cc3c[nH]cn3)NC(=O)[C@H](C(C)(C)O)NC(=O)[C@H](CC3CCCCC3)NC(=O)[C@H](CCN)NC(=O)[C@@H](CC(C)C)NC(=O)[C@H](CCCN)NC(=O)[C@H](Cc3ccc(OCC(=O)O)cc3)NC(=O)[C@H](Cc3ccc(-c4ccccc4)cc3)NC(=O)[C@H](Cc3ccc(OCC(=O)O)cc3)NC2=O)c1 [Compound 3871] ({CH2CO}-AY(Carboxymethyl)D[Phe(3-Me)]Y(Carboxymethyl)[Bip]Y(Carboxymethyl)[Orn][dL][Dab][Cha][Val(3-OH)]HC[Dab][AEEA][AEEA][γGlu][γGlu]-{NH(CH2)16COOH}; thioether N-14)
5 | 8.60 | Cc1cccc(C[C@@H]2NC(=O)[C@H](CC(=O)O)NC(=O)[C@H](Cc3ccc(OCC(=O)O)cc3)NC(=O)[C@H](CCN)NC(=O)CSC[C@@H](C(=O)N[C@@H](CCN)C(=O)NCCOCCOCC(=O)NCCCCCCCCCCC(=O)O)NC(=O)[C@H](CC(=O)O)NC(=O)[C@H](C(C)C)NC(=O)[C@H](CC3CCCCC3)NC(=O)[C@H](CCN)NC(=O)[C@@H](CC(C)C)NC(=O)[C@H](CCCN)NC(=O)[C@H](Cc3ccc(OCC(=O)O)cc3)NC(=O)[C@H](Cc3ccc(-c4ccccc4)cc3)NC(=O)[C@H](Cc3ccc(OCC(=O)O)cc3)NC2=O)c1 [Compound 3801] ({CH2CO}-[Dab]Y(Carboxymethyl)D[Phe(3-Me)]Y(Carboxymethyl)[Bip]Y(Carboxymethyl)[Orn][dL][Dab][Cha]VDC[Dab][AEEA][Aun]-OH; thioether N-14)
6 | 8.17 | Cc1cccc(C[C@@H]2NC(=O)[C@H](CC(=O)O)NC(=O)[C@H](Cc3ccc(OCC(=O)O)cc3)NC(=O)[C@H](CCN)NC(=O)CSC[C@@H](C(=O)N[C@@H](CCN)C(=O)NCCCCCCCCCCC(=O)O)NC(=O)[C@H](CO)NC(=O)[C@H](C(C)(C)O)NC(=O)[C@H](CC3CCCCC3)NC(=O)[C@H](CCN)NC(=O)[C@@H](CC(C)C)NC(=O)[C@H](CCCN)NC(=O)[C@H](Cc3ccc(C(N)=O)cc3)NC(=O)[C@H](Cc3ccc(-c4ccccc4)cc3)NC(=O)[C@H](Cc3ccc(OCC(=O)O)cc3)NC2=O)c1 [Compound 3604] ({CH2CO}-[Dab]Y(Carboxymethyl)D[Phe(3-Me)]Y(Carboxymethyl)[Bip][Phe(4-CONH2)][Orn][dL][Dab][Cha][Val(3-OH)]SC[Dab][Aun]-OH; thioether N-14)
7 | 7.69 | Cc1cccc(C[C@@H]2NC(=O)[C@H](CC(=O)O)NC(=O)[C@H](Cc3ccc(OCC(=O)O)cc3)NC(=O)[C@H](CCCNC(=N)N)NC(=O)CSC[C@@H](C(=O)N[C@@H](CCN)C(=O)NCCCCCCCCCCC(=O)O)NC(=O)[C@H](CCC(N)=O)NC(=O)[C@H](C(C)C)NC(=O)[C@H](CC3CCCCC3)NC(=O)[C@H](CCN)NC(=O)[C@@H](CC(C)C)NC(=O)[C@H](CCCN)NC(=O)[C@H](Cc3ccc(O)cc3)NC(=O)[C@H](Cc3ccc(-c4ccccc4)cc3)NC(=O)[C@H](CC(C)C)NC2=O)c1 [Compound 3380] ({CH2CO}-RY(Carboxymethyl)D[Phe(3-Me)]L[Bip]Y[Orn][dL][Dab][Cha]VQC[Dab][Aun]-OH; thioether N-14)
8 | 8.26 | CC(C)C[C@H]1NC(=O)[C@H](CCCN)NC(=O)[C@H](C(C)C)NC(=O)[C@H](Cc2ccc(-c3ccccc3)cc2)NC(=O)[C@H](C(C)C)NC(=O)[C@H](Cc2c[nH]c3ccccc23)NC(=O)[C@H](CC(=O)O)NC(=O)[C@H](Cc2ccc(OCC(=O)O)cc2)NC(=O)[C@H](Cc2ccncc2)NC(=O)CSC[C@@H](C(=O)NCC(=O)NCCOCCOCC(=O)N[C@@H](CCCN)C(=O)NCCCCCCCCCCC(=O)O)NC(=O)[C@H](CN)NC(=O)[C@H](C(C)C)NC(=O)[C@H](CC2CCCCC2)NC(=O)[C@H](CCN)NC1=O [Compound 3233] ({CH2CO}-[4Pal]Y(Carboxymethyl)DWV[Bip]V[Orn][dL][Dab][Cha]V[Dap]CG[AEEA][Orn][Aun]-OH; thioether N-14)
9 | 7.15 | Cc1cccc(C[C@@H]2NC(=O)[C@H](CC(=O)O)NC(=O)[C@H](Cc3ccc(OCC(=O)O)cc3)NC(=O)[C@H](C)NC(=O)CSC[C@@H](C(=O)N[C@@H](CCN)C(=O)NCCOCCOCC(=O)NCCOCCOCC(=O)NCCOCCOCC(=O)NCCOCCOCC(=O)NCCCCCCCCCCCCCCC(=O)O)NC(=O)[C@H](CO)NC(=O)[C@H](C(C)(C)O)NC(=O)[C@H](CC3CCCCC3)NC(=O)[C@H](CCN)NC(=O)[C@@H](CC(C)C)NC(=O)[C@H](CCCN)NC(=O)[C@H](Cc3ccc(OCC(=O)O)cc3)NC(=O)[C@H](Cc3ccc(-c4ccccc4)cc3)NC(=O)[C@H](Cc3ccc(OCC(=O)O)cc3)NC2=O)c1 [Compound 3869] ({CH2CO}-AY(Carboxymethyl)D[Phe(3-Me)]Y(Carboxymethyl)[Bip]Y(Carboxymethyl)[Orn][dL][Dab][Cha][Val(3-OH)]SC[Dab][AEEA][AEEA][AEEA][AEEA]-{NH(CH2)14COOH}; thioether N-14)
